Holding throughout (format): physicochemical
A short description of data set [1]: Hygroscopicity test by dynamic vapor sorption (DVS). The conditions noted are these: from 0.0% RH to 95% RH.
Data set [2] can be described thus: Solubility test in biologically relevant media at 37° C. (HPLC, pH, XRPD of filter cake). The protocol:
(§1) The instrument used for HIPLC analysis was Agilent TIPLC 1260 series.
The suspension was incubated by shaking on a shaker at 100 rpm at 37° C. 1 mL of the dispersion was taken at 0.5 h, 2 h, and 24 h, and filtered. The filtrate was tested for the solubility by HPLC and for the pH value by a pH meter. The filter cake was characterized for the crystal form by XRPD.

Data set [3] can be described thus: Hygroscopicity test by dynamic vapor sorption (DVS). On the procedure: The sample was subjected to water adsorption/desorption tests using a Vsorp (ProUmid GmbH & Co. KG, Germany) water adsorption analyzer. The sample was placed in a tared sample tray, and the change in the sample mass with humidity (0-90% RH) at 25° C. was recorded.
Data set [4] in a line: Solid state stability test (HPLC purity, XRPD). The conditions noted are these: 265 nm; for Purity (Area %): 1 week. The protocol:
as §1
The samples after being stored 0 days, 1 week, and 2 weeks were taken and each dissolved in a diluent to prepare about 1.0 mg/mL solution, which was tested for chemical stability by HPLC. The solid sample after being stored for 1 week or 2 weeks was tested for physical stability by XRPD.

As a reminder, the Solubility is the concentration that dissolves in the medium under given conditions. A lower Solubility goes with a poorly soluble substance.

As for `COc1cccc(CNC(=O)N2CCc3cc(-c4c[nH]nc4N)c(F)cc32)c1` [Fumarate crystal form II], the DVS water absorbed entry in data set [1] was “about 0.2%”. Further, the Solubility stood at 0.28 µg/mL in data set [2] (FaSSIF, 37° C., 24 h); 132.92 µg/mL in data set [2] (FeSSIF, 37° C., 24 h); 1425.24 µg/mL in data set [2] (SGF, 37° C., 24 h). Moreover, the pH of filtrate amounted to 6.2 in data set [2] (FaSSIF, 24 h (0 h: 6.50)); 4.9 in data set [2] (FeSSIF, 24 h (0 h: 5.00)); 1.2 in data set [2] (SGF, 24 h (0 h: 1.20)). Further, in data set [2] (SGF, 37° C., 24 h), the “XRPD (crystal form of filter cake)” value is reported as “Remains unchanged”. In addition, in data set [3], the “XRPD pattern / crystal form before and after the DVS test” value is listed as “crystal form remained unchanged”. Moreover, in data set [3] (DVS, assessment in words), the Hygroscopicity entry is listed as “non-hygroscopic”. For the same molecule, the “Initial purity (Area %)” value in data set [4] (0 weeks, HPLC method of 7-day test) stood at 99.30 Area %. Also, the “Purity (Area %)” value in data set [4] (40° C./75% RH open) and in data set [4] (60° C./sealed) was 99.20 Area % throughout.

(Values after patent publication US20240239735A1, “ACID ADDITION SALT OF ROCK INHIBITOR, AND CRYSTAL FORM, COMPOSITION AND PHARMACEUTICAL USE THEREOF” (WUHAN LL SCIENCE AND TECHNOLOGY DEVELOPMENT CO., LTD., priority 2021, published 2024).)
